{"source": "patent US10617695B2", "about": "“Ophthalmic compositions containing alcaftadine” (Vistakon Pharmaceuticals, LLC, priority 2006, dated 2020)", "key": {"[1]": {"test_system": "E-cadherin", "experiment": "Integrity of conjunctival epithelium after conjunctival allergen challenge: E-cadherin expression (confocal microscopy)", "type": "in vivo, mice", "description": "(§1) To investigate the ability of alcaftadine to maintain the integrity of conjunctival epithelium, changes in the expression of the tight junction proteins ZO-1 and E-cadherin (an induction for E-cadherin and qualitative change-from focal to diffuse for ZO-1) were evaluated following specific conjunctival allergen challenge. These changes are associated with an increased permeability of the conjunctival and other epithelial tissues. This in vivo experiment examined what effect alcaftadine (topical administration 1 and 2 hours pre-challenge) had on the modulation of these proteins.\n(§2) Mice were sensitized with short ragweed (SRW) in aluminum hydroxide via intraperitoneal administration (Day 0, 7, and 15) and eye drop instillation (Day 8 and 15). On Day 20, mice were further sensitized with eye drops containing only SRW. On Day 27, the mice were treated topically with either 5 μL alcaftadine or vehicle at 1 and 2 hours prior to challenge. SRW was instilled topically to both eyes. The expression of these proteins in naive eyes were also monitored. Changes in the expression of the tight junction proteins ZO-1 and E-cadherin were observed 1-hour post conjunctival allergen challenge with SRW. The proteins were detected using FITC-conjugated monoclonal antibodies specific for ZO-1 and E-cadherin and were visualized by confocal microscopy (Ziess). […]"}, "[2]": {"target": "T1, human histamine H4 receptor (Homo sapiens, UniProt Q9H3N8)", "T1 construct": "express a reporter gene construct and the human H4 receptor full-coding region; expressed in transfected cells; host or cells: SK-N-MC cells with a CRE-beta-galactosidase reporter", "T1 sequence (Q9H3N8 whole entry)": "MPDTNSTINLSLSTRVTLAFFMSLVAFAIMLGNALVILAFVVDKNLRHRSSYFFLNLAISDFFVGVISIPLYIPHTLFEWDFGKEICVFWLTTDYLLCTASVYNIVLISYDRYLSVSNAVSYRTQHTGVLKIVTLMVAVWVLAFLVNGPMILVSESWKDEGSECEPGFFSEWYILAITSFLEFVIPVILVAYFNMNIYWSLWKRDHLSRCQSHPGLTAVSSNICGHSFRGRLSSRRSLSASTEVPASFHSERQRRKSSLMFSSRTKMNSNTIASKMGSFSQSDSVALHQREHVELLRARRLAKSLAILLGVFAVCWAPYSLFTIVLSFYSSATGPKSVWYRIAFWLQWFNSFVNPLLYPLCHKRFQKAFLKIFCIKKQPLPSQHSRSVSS", "experiment": "[3H]histamine competition binding to membranes of SK-N-MC cells transfected with human H4 receptor"}, "[3]": {"test_system": "ZO-1", "experiment": "Integrity of conjunctival epithelium after conjunctival allergen challenge: ZO-1 expression (confocal microscopy)", "type": "in vivo, mice", "description": "as §1, §2"}, "[4]": {"test_system": "murine model of allergic conjunctivitis", "experiment": "Vascular leak (Evans Blue Dye Extravasation) in murine model of allergic conjunctivitis, early phase", "type": "in vivo, mice", "settings": "alcaftadine 2.5 mg/ml, 5 μL topical at 1 and 2 hours pre-challenge; p<0.05", "description": "Alcaftadine ophthalmic solution was evaluated to determine if topical treatment could reduce early phase and late phase allergic inflammation in a murine model of allergic conjunctivitis. Evans Blue Dye Leakage was used to assess the impact on vascular permeability during the early phase inflammatory response Conjunctiva was taken at 24 hours, stained, and assessed for presence of neutrophil and eosinophil infiltration to evaluate late phase anti-inflammatory activity.\nAll mice were sensitized with short ragweed (SRW) in aluminum hydroxide via intraperitoneal administration (Day 0, 7, and 14) and eye drop instillation (Day 8 and 15). On Day 20, mice were again sensitized with eye drops of SRW.\nOn Day 27, two topical administrations of the clinical dose of alcaftadine 2.5 mg/ml or vehicle were instilled at 1 and 2 hours pre-challenge. Alcaftadine and vehicle were administered topically at a 5 μL saturating dose as treatment arms based on a randomization code. […]\nVascular leak was determined by means of Evans Blue Dye Extravasation following allergen challenge for N=6 animals except the alcaftadine treatment arm, where N=4 animals were sacrificed and tested (two animals died during the procedure). […] The numbers of eosinophils and neutrophils were determined both by light microscopy of Giemsa or H&E stained sections or by immunohistochemistry using cell specific monoclonal antibodies. […]"}, "[5]": {"test_system": "adult volunteers with a history of allergic conjunctivitis", "experiment": "Conjunctival Allergen Challenge (CAC) in adult volunteers", "type": "in vivo, human", "description": "The anti-allergic effect of a single dose of each of the three concentrations of alcaftadine ophthalmic solutions from Example 1 was assessed in a Conjunctival Allergen Challenge (“CAC”) performed on adult volunteers with a history of allergic conjunctivitis. Subjects were selected after two visits to confirm reactivity to the allergen challenge. […] Subjects were then challenged with allergen by instilling reconstituted commercially available allergen into each eye on two separate visits 16 hours and 15 minutes after the bilateral instillation of alcaftadine, PATANOL® olopatadine hydrochloride ophthalmic solution 0.1% (Alcon, Inc., Fort Worth, Tex.) or vehicle, and the clinical response assessed.\nAssessments were made at 7, 15 and 20 minutes post challenge based on investigator evaluations of redness using a 5 point scale.\nNasal symptoms of sneezing, rhinorrhea, pruritis (nasal and ear/palate) and nasal congestion were assessed by subjects using standardized scales."}, "[6]": {"settings": "5 μL topical at 1 and 2 hours prior to challenge, 1-hour post challenge"}, "[7]": {"settings": "following specific conjunctival allergen challenge"}, "[8]": {"settings": "administered 16 hours prior to challenge"}}, "note": "Entries after “also recorded” stand apart in the source; their conditions may differ.", "data": [{"smiles": "CN1CCC(=C2c3ccccc3CCn3c(C=O)cnc32)CC1", "note": "[Alcaftadine, 6,11-dihydro-11-(1-methyl-4-piperidinylidene)-5H-imidazo[2,1-b][3]benzazepine-3-carboxaldehyde]", "values": [{"measurement": "E-cadherin staining, alcaftadine treatment versus naive (negative control)", "setting": "[1]; [6]", "value": "no or minimal difference"}, {"measurement": "induction of E-cadherin expression", "setting": "[1]; [7]", "value": "inhibits the induction of E-cadherin expression"}, {"measurement": "Ki", "setting": "[2]; average of two runs, 10 nM [3H]histamine, Cheng and Prusoff", "value": 2.9, "unit": "µM"}, {"measurement": "pKi", "setting": "[2]; compared with pA2", "value": 5.5}, {"measurement": "ZO-1 staining, alcaftadine treatment versus naive (negative control)", "setting": "[3]; [6]", "value": "no or minimal difference"}, {"measurement": "integrity of conjunctival epithelial tight junctions (focal ZO-1 expression)", "setting": "[3]; [7]", "value": "maintains the integrity of conjunctival epithelial tight junctions"}, {"measurement": "vascular leak compared to vehicle", "setting": "[4]", "value": "successfully preventing vascular leakage; also recorded: did significantly inhibit vascular leak"}, {"measurement": "itching scores versus vehicle or PATANOL", "setting": "[5]; 0.25% treatment group, challenged 15 minutes post-treatment", "value": "lower itching scores than vehicle or PATANOL®"}, {"measurement": "conjunctival redness scores versus vehicle or PATANOL", "setting": "[5]; 0.25% treatment group, challenged at 15 minutes post-treatment", "value": "lower scores than vehicle or PATANOL®"}, {"measurement": "inhibition of conjunctival redness", "setting": "[5]; [8]", "value": "dose-related inhibition of conjunctival redness"}, {"measurement": "inhibition of ocular itching", "setting": "[5]; [8]", "value": "dose-related inhibition of ocular itching"}, {"measurement": "mean itching scores versus vehicle or PATANOL", "setting": "[5]; all concentrations, 16 hours prior to challenge, 3, 5 and 7 minutes post-challenge, 5 point scale", "value": "lower mean itching scores"}, {"measurement": "mean conjunctival redness scores", "setting": "[5]; all concentrations, 16 hours prior to challenge, 7, 15 and 20 minutes post challenge, 5 point scale", "value": "various degrees of reduction in mean conjunctival redness scores at most assessment times"}, {"measurement": "relief of nasal congestion and rhinorrhea", "setting": "[5]; all concentrations, various time points", "value": "some degree of relief"}, {"measurement": "effect on sneezing", "setting": "[5]; baseline sneezing incidence likely too low", "value": "No effect on sneezing was demonstrated"}, {"measurement": "inhibition of ocular itching", "setting": "[5]; challenged 15 minutes post-treatment", "value": "dose-related inhibition of ocular itching as compared to placebo"}, {"measurement": "reduction of rhinorrhea, nasal congestion, and pruritis of the palate/ear", "setting": "[5]; majority of timepoints at both onset and duration visits", "value": "significant reduction"}]}]}
